The data set deals with GRN mRNA. Kind of data set: GRN mRNA qPCR in SK-N-AS cells transfected with ASOs. Conditions: SK-N-AS, normalized to CO-1589. Type of data set: cell-based, human. The method, boiled down:
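Fold change in GRN mRNA, by qPCR with GAPDH/PPIA housekeeping normalization, referenced to steric non-targeting control ASO(s) such as CO-1589. ASOs were transfected into SK-N-AS neuroblastoma cells in dose titrations (20 to 160 nM initially). Cells were harvested 48 hours post-transfection.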
For orientation: In qPCR the cycle at which signal appears reflects the starting amount.

Oligonucleotides are written 5' to 3', each unit as a sugar letter and its base; * is a phosphorothioate linkage, no mark a phosphodiester; rarer units and linkages stand in square brackets, end groups in braces. Plain capitals give the bases only. e = 2'-O-(2-methoxyethyl) (MOE); l = locked nucleic acid (LNA); [5mC] = 5-methylcytosine; d = 2'-deoxy (DNA)

27 substances from US20250243488A1, “METHODS OF MODULATING PROGRANULIN EXPRESSION USING ANTISENSE OLIGONUCLEOTIDES TARGETING REGULATORY RNAS” (Camp4 Therapeutics Corporation, priority 2022, published 2025) can be followed below.

For the substance “CO-6397: ASO based on parent ASO CO-3462 (antisense eT*eA*eG*eG*eA*lG*eA*eA*eT*e[5mC]*lG*e[5mC]*eT*eT*eT*lG*eG*eG*eA*eG)”, under “Table 12”, the “30 nM FC (GRN mRNA)” value stood at 1.4 FC, the “60 nM FC (GRN mRNA)” value was found to be 1.8 FC and the “120 nM FC (GRN mRNA)” value was 1.8 FC.
As to “CO-6398: ASO based on parent ASO CO-3462 (antisense eT*eA*eG*eG*lA*eG*eA*eA*eT*l[5mC]*eG*e[5mC]*eT*eT*lT*eG*eG*eG*eA*eG)”, under “Table 12”, the “30 nM FC (GRN mRNA)” value was determined as 1.3 FC, the “60 nM FC (GRN mRNA)” value is given as 1.5 FC and the “120 nM FC (GRN mRNA)” value is 1.8 FC.
For “CO-6399: ASO based on parent ASO CO-3462 (antisense eG*eT*eA*eG*eG*eA*dG*dA*dA*dT*d[5mC]*dG*d[5mC]*dT*dT*dT*eG*eG*eG*eA*eG*e[5mC])”, in that order: 1.3 FC, 1.6 FC and 1.9 FC.
Taken in the same sequence, the figures for “CO-6400: ASO based on parent ASO CO-3462 (antisense eG*eT*eA*eG*eG*eA*eG*eA*eA*eT*e[5mC]*eG*e[5mC]*eT*eT*eT*eG*eG*eG*eA*eG*e[5mC])” were 1.1 FC, 1.3 FC and 1.3 FC.
In the case of “CO-6401: ASO based on parent ASO CO-3462 (antisense eG*eT*eA*eG*eG*dA*dG*dA*eA*dT*d[5mC]*dG*d[5mC]*eT*dT*dT*dG*eG*eG*eA*eG*e[5mC])”, where the note is “Table 12”, the “30 nM FC (GRN mRNA)” value is reported as 1.2 FC, the “60 nM FC (GRN mRNA)” value was 1.5 FC and the “120 nM FC (GRN mRNA)” value was 1.7 FC.
On to “CO-6402: ASO based on parent ASO CO-3462 (antisense eG*eT*eA*eG*eG*lA*dG*dA*lA*dT*d[5mC]*dG*d[5mC]*lT*dT*dT*lG*eG*eG*eA*eG*e[5mC])”, for which, for the setting “Table 12”, the “30 nM FC (GRN mRNA)” value was 1.5 FC, the “60 nM FC (GRN mRNA)” value is on record as 1.6 FC and the “120 nM FC (GRN mRNA)” value amounted to 1.8 FC.
For “CO-6403: ASO based on parent ASO CO-3462 (antisense eG*eG*eT*eA*eG*eG*eA*dG*dA*dA*dT*d[5mC]*dG*d[5mC]*dT*dT*dT*eG*eG*eG*eA*eG*e[5mC]*eA)”, in that order: 1.6 FC, 2.2 FC and 2.4 FC.
For “CO-6404: ASO based on parent ASO CO-3462 (antisense eG*eG*eT*eA*eG*eG*eA*eG*eA*eA*eT*e[5mC]*eG*e[5mC]*eT*eT*eT*eG*eG*eG*eA*eG*e[5mC]*eA)”, in that order: 1.3 FC, 1.3 FC and 1.5 FC.
For “CO-6405: ASO based on parent ASO CO-3462 (antisense eG*eG*eT*eA*eG*dG*dA*eG*dA*dA*eT*d[5mC]*dG*e[5mC]*dT*dT*eT*dG*dG*eG*eA*eG*e[5mC]*eA)”, in that order: 1.1 FC, 1.3 FC and 1.3 FC.
With “CO-6406: ASO based on parent ASO CO-3462 (antisense eG*eG*eT*eA*eG*dG*dA*lG*dA*dA*lT*d[5mC]*dG*l[5mC]*dT*dT*lT*dG*dG*eG*eA*eG*e[5mC]*eA)”, where the note is “Table 12”, the “30 nM FC (GRN mRNA)” value is listed as 1.4 FC, the “60 nM FC (GRN mRNA)” value is 1.4 FC and the “120 nM FC (GRN mRNA)” value is 1.7 FC.
With “CO-6407: ASO based on parent ASO CO-3462 (antisense TAGGAGAATCGCTTTGGGAG; 2'-MOE, 5-methylC, mixed PO/PS; listed as RNA; modified_base 1..3: mod_base = OTHER; note = Phosphorothioate linkage; modified_base 6..15: mod_base = OTHER; modified_base 1..9: mod_base = OTHER; modified_base 18..20: mod_bas)”, where the note is “Table 12”, the “30 nM FC (GRN mRNA)” value is reported as 1.1 FC, the “60 nM FC (GRN mRNA)” value came to 1.2 FC and the “120 nM FC (GRN mRNA)” value is reported as 1.6 FC.
With “CO-6408: ASO based on parent ASO CO-3462 (antisense eT*eA*eG*eGeAeGeA*eA*eT*e[5mC]*eG*e[5mC]*eT*eTeTeGeG*eG*eA*eG)”, for the setting “Table 12”, the “30 nM FC (GRN mRNA)” value was found to be 1.0 FC, the “60 nM FC (GRN mRNA)” value is listed as 1.1 FC and the “120 nM FC (GRN mRNA)” value was determined as 1.5 FC.
Consider “CO-6409: ASO based on parent ASO CO-3462 (antisense eT*eA*eGeG*eA*eGeA*eA*eTe[5mC]*eG*e[5mC]eT*eT*eTeG*eG*eGeA*eG)”, for which, where the note is “Table 12”, the “30 nM FC (GRN mRNA)” value is on record as 1.1 FC, the “60 nM FC (GRN mRNA)” value is recorded as 1.1 FC and the “120 nM FC (GRN mRNA)” value is 1.5 FC.
On to “CO-6410: ASO based on parent ASO CO-3462 (antisense eT*eAeG*eG*eAeG*eA*eAeT*e[5mC]*eGe[5mC]*eT*eTeT*eG*eGeG*eA*eG)”, for which, under “Table 12”, the “30 nM FC (GRN mRNA)” value is on record as 1.1 FC, the “60 nM FC (GRN mRNA)” value is given as 1.0 FC and the “120 nM FC (GRN mRNA)” value is given as 1.6 FC.
Turning to “CO-6411: ASO based on parent ASO CO-3462 (antisense eT*eA*eGeGeA*eG*eA*eA*eT*e[5mC]*eG*e[5mC]*eT*eT*eT*eGeGeG*eA*eG)”, where the note is “Table 12”, the “30 nM FC (GRN mRNA)” value amounted to 1.1 FC, the “60 nM FC (GRN mRNA)” value is listed as 1.4 FC and the “120 nM FC (GRN mRNA)” value is 1.8 FC.
“CO-6412: ASO based on parent ASOs CO-4363 and CO-4364 (antisense eG*eG*eA*e[5mC]*eT*dT*dG*dG*dG*dA*dG*dT*dG*dG*dT*dG*eA*e[5mC]*eT*eG*eA)”: for the setting “Table 13”, the “30 nM FC (GRN mRNA)” value was determined as 1.0 FC, the “60 nM FC (GRN mRNA)” value is listed as 0.8 FC and the “120 nM FC (GRN mRNA)” value amounted to 0.9 FC.
For the substance “CO-6413: ASO based on parent ASOs CO-4363 and CO-4364 (antisense eG*eG*eA*e[5mC]*eT*dT*dG*dG*eG*dA*dG*dT*eG*dG*dT*dG*eA*e[5mC]*eT*eG*eA)”, where the note is “Table 13”, the “30 nM FC (GRN mRNA)” value turned out to be 1.0 FC, the “60 nM FC (GRN mRNA)” value was 0.6 FC and the “120 nM FC (GRN mRNA)” value amounted to 0.7 FC.
Consider “CO-6414: ASO based on parent ASOs CO-4363 and CO-4364 (antisense eG*eG*eA*l[5mC]*eT*lT*eG*lG*eG*lA*eG*lT*eG*lG*eT*lG*eA*l[5mC]*eT*eG*eA)”, for which, under “Table 13”, the “30 nM FC (GRN mRNA)” value is 1.6 FC, the “60 nM FC (GRN mRNA)” value is on record as 1.4 FC and the “120 nM FC (GRN mRNA)” value was found to be 1.3 FC.
Taken in the same sequence, the figures for “CO-6415: ASO based on parent ASOs CO-4363 and CO-4364 (antisense eG*eG*eA*l[5mC]*eT*eT*lG*eG*eG*lA*eG*eT*lG*eG*eT*lG*eA*e[5mC]*lT*eG*eA)” were 1.3 FC, 1.6 FC and 1.6 FC.
For “CO-6416: ASO based on parent ASOs CO-4363 and CO-4364 (eG*eG*lA*e[5mC]*eT*lT*eG*eG*lG*eA*eG*lT*eG*eG*lT*eG*eA*l[5mC]*eT*eG*eA)”, in that order: 1.4 FC, 1.6 FC and 2.2 FC.
For “CO-6417: ASO based on parent ASOs CO-4363 and CO-4364 (eG*eG*eA*e[5mC]*lT*eT*eG*eG*lG*eA*eG*eT*lG*eG*eT*eG*lA*e[5mC]*eT*eG*eA)”, in that order: 1.4 FC, 2.3 FC and 2.8 FC.
In the case of “CO-6418: ASO based on parent ASOs CO-4363 and CO-4364 (eG*eG*eA*e[5mC]*eT*lT*eG*eG*eG*eA*lG*eT*eG*eG*eT*lG*eA*e[5mC]*eT*eG*eA)”, under “Table 13”, the “30 nM FC (GRN mRNA)” value turned out to be 1.6 FC, the “60 nM FC (GRN mRNA)” value was found to be 1.6 FC and the “120 nM FC (GRN mRNA)” value worked out at 1.9 FC.
Consider “CO-6419: ASO based on parent ASOs CO-4363 and CO-4364 (eG*eG*eA*e[5mC]*eT*dT*dG*dG*dG*dA*dG*dT*dG*dG*dT*dG*dA*d[5mC]*eT*eG*eA*eA*e[5mC])”, for which, where the note is “Table 13”, the “30 nM FC (GRN mRNA)” value was 1.0 FC, the “60 nM FC (GRN mRNA)” value is recorded as 1.0 FC and the “120 nM FC (GRN mRNA)” value worked out at 0.9 FC.
Turning to “CO-6420: ASO based on parent ASOs CO-4363 and CO-4364 (eG*eG*lA*e[5mC]*eT*lT*eG*eG*lG*eA*eG*lT*eG*eG*lT*eG*eA*l[5mC]*eT*eG*lA*eA*e[5mC])”, for the setting “Table 13”, the “30 nM FC (GRN mRNA)” value stood at 1.4 FC, the “60 nM FC (GRN mRNA)” value came to 2.7 FC and the “120 nM FC (GRN mRNA)” value was 2.2 FC.
Regarding “CO-6421: ASO based on parent ASOs CO-4363 and CO-4364 (eG*eG*eA*e[5mC]*eT*lT*eG*eG*eG*eA*eG*lT*eG*eG*eT*eG*eA*l[5mC]*eT*eG*eA*eA*e[5mC])”, for the setting “Table 13”, the “30 nM FC (GRN mRNA)” value stood at 1.3 FC, the “60 nM FC (GRN mRNA)” value is 2.1 FC and the “120 nM FC (GRN mRNA)” value is listed as 1.7 FC.
For “CO-6422: ASO based on parent ASOs CO-4363 and CO-4364 (eG*eG*eA*l[5mC]*eT*eT*eG*lG*eG*eA*eG*lT*eG*eG*eT*lG*eA*e[5mC]*eT*lG*eA*eA*e[5mC])”, in that order: 1.9 FC, 2.0 FC and 2.1 FC.
Taken in the same sequence, the figures for “CO-6423: ASO based on parent ASOs CO-4363 and CO-4364 (eG*eG*eA*e[5mC]*lT*eT*eG*eG*eG*lA*eG*eT*eG*eG*lT*eG*eA*e[5mC]*eT*lG*eA*eA*e[5mC])” were 1.2 FC, 2.6 FC and 2.8 FC.
